In patent publication US20160324796A1, “COMPOSITIONS AND THEIR USE TO TREAT COMPLICATIONS OF ANEURYSMAL SUBARACHNOID HEMMORRHAGE” (Edge Therapeutics, Inc., priority 2007, published 2016):
Read-outs that look alike come from different tables or passages of the source.

What was measured:
[1] = Preclinical Study 2: CSF (cisterna magna) concentration of nimodipine; assay type: in vivo, mongrel dogs; details: oral nimodipine 0.86 mg/kg six times per day
Excerpt: (§1) On days 8 and 15, the animals were anesthetized, and angiography, removal of CSF from the cistern magna and collection of plasma, were repeated. Other endpoints included daily blood pressure measurements, behavior assessment, and brain and spinal cord pathology. Animals were euthanized under anesthesia on day 28 or 49, perfused with PBS and then neutral buffered formalin, and the brains subjected to histological analysis.
Values are means±standard error of the mean (n=8 per measurement).

[2] = mongrel, dog, in vivo
Excerpt: as §1
The animals are grouped according to whether the animals died or were euthanized at an unscheduled time (DOS) or underwent scheduled necropsy (SNC).

[3] = Plasma nimodipine after single subcutaneous injection of nimodipine PLGA microparticles; assay type: in vivo, Wistar rats; details: rats, up to day 15
Experimental: The rats were divided into separate treatment groups: one control group for treatment with a nimodipine reference solution (control group) and several test groups for treatment with exemplary nimodipine formulations (microparticle test group) according to the described invention. […] The test article was reconstituted with an injection vehicle volume of 0.15 or 0.70 ml, and the entire volume of each reconstituted vial was drawn up immediately and administered individually to each animal. Blood samples were collected from two alternating cohorts of 2 or 3 animals per cohort in the microparticle formulation-injected groups. Collection was immediately before injection and then 1, 12, and 24 hours post dose, and on days 4, 8, 11, and 15. After the last blood sample collection interval, the surviving animals were euthanized via carbon dioxide inhalation. Euthanasia was confirmed by cervical dislocation and anesthesia.

[4] = Mice, Male, cited from earlier work
[5] = Rats, Male, cited from earlier work
[6] = cited from earlier work
[7] = cited from earlier work; remark: listed apart in the source

COCCOC(=O)C1=C(C)NC(C)=C(C(=O)OC(C)C)C1c1cccc([N+](=O)[O-])c1 (stereo not shown) [nimodipine, Isopropyl 2-methoxyethyl 1,4-dihydro-2,6-dimethyl-4-(m-nitrophenyl)-3,5-pyridinedicarboxylate]
CSF nimodipine concentrations [1]: low or undetectable
Brain discoloration, red, # of animals ([2]; female, 28 d): 0
Brain focus/foci, red, # of animals ([2]; female, 28 d): 0
Brain nodule, # of animals ([2]; female, 28 d): 0
Brain: chromatolysis, central, neuronal; minimal ([2]; female, 28 d): 0
Brain: degeneration, axonal/myelin; mild ([2]; female, 28 d): 0
Brain: degeneration, axonal/myelin; minimal ([2]; female, 28 d): 0
Brain: degeneration; mild ([2]; female, 28 d): 0
Brain: degeneration; minimal ([2]; female, 28 d): 0
Brain: fibroplasia; mild ([2]; female, 28 d): 0
Brain: fibroplasia; minimal ([2]; female, 28 d): 0
Brain: granulation tissue; mild ([2]; female, 28 d): 0
Brain: granulation tissue; minimal ([2]; female, 28 d): 0
Brain: hemorrhage; minimal ([2]; female, 28 d): 0
Brain: hemorrhage; moderate ([2]; female, 28 d): 0
Brain: inflammation, granulomous; minimal ([2]; female, 28 d): 0
Brain: inflammation, meningeal; minimal ([2]; female, 28 d): 0
Brain: inflammation, subacute/chronic; mild ([2]; female, 28 d): 0
Brain: macrophages, pigmented; mild ([2]; female, 28 d): 0
Brain: macrophages, pigmented; minimal ([2]; female, 28 d): 0
Brain: mineralization focal; minimal ([2]; female, 28 d): 0
Brain: neovascularization; minimal ([2]; female, 28 d): 0
Brain: within normal limits ([2]; female, 28 d): 0
Spinal Cord, Cervical: degeneration, axonal/myelin; minimal ([2]; female, 28 d): 0
Spinal Cord, Cervical: fibroplasia; minimal ([2]; female, 28 d): 0
Spinal Cord, Cervical: fibroplasia; moderate ([2]; female, 28 d): 0
Spinal Cord, Cervical: inflammation, granulomatous; minimal ([2]; female, 28 d): 0
Spinal Cord, Cervical: inflammation, subacute/chronic; mild ([2]; female, 28 d): 0
Spinal Cord, Cervical: macrophages, pigmented; minimal ([2]; female, 28 d): 0
Spinal Cord, Cervical: within normal limits ([2]; female, 28 d): 0
Spinal Cord, Lumbar: fibroplasia; minimal ([2]; female, 28 d): 0
Spinal Cord, Lumbar: hemorrhage; minimal ([2]; female, 28 d): 0
Spinal Cord, Lumbar: mineralization; minimal ([2]; female, 28 d): 0
Spinal Cord, Lumbar: within normal limits ([2]; female, 28 d): 0
Spinal Cord, Thoracic: fibroplasia; minimal ([2]; female, 28 d): 0
Spinal Cord, Thoracic: hemorrhage; minimal ([2]; female, 28 d): 0
Spinal Cord, Thoracic: inflammation, granulomatous; minimal ([2]; female, 28 d): 0
Spinal Cord, Thoracic: inflammation, subacute/chronic; minimal ([2]; female, 28 d): 0
Spinal Cord, Thoracic: macrophages, pigmented; minimal ([2]; female, 28 d): 0
Spinal Cord, Thoracic: within normal limits ([2]; female, 28 d): 0
Brain discoloration, red, # of animals ([2]; female, 49 d): 0
Brain focus/foci, red, # of animals ([2]; female, 49 d): 0
Brain nodule, # of animals ([2]; female, 49 d): 0
Brain: chromatolysis, central, neuronal; minimal ([2]; female, 49 d): 0
Brain: degeneration, axonal/myelin; mild ([2]; female, 49 d): 0
Brain: degeneration, axonal/myelin; minimal ([2]; female, 49 d): 0
Brain: degeneration; mild ([2]; female, 49 d): 0
Brain: fibroplasia; mild ([2]; female, 49 d): 0
Brain: fibroplasia; minimal ([2]; female, 49 d): 0
Brain: granulation tissue; mild ([2]; female, 49 d): 0
Brain: granulation tissue; minimal ([2]; female, 49 d): 0
Brain: hemorrhage; mild ([2]; female, 49 d): 0
Brain: hemorrhage; minimal ([2]; female, 49 d): 0
Brain: hemorrhage; moderate ([2]; female, 49 d): 0
Brain: infiltration, lymphoid, perivascular; minimal ([2]; female, 49 d): 0
Brain: inflammation, granulomous; mild ([2]; female, 49 d): 0
Brain: inflammation, granulomous; minimal ([2]; female, 49 d): 0
Brain: inflammation, meningeal; minimal ([2]; female, 49 d): 0
Brain: inflammation, subacute/chronic; mild ([2]; female, 49 d): 0
Brain: macrophages, pigmented; mild ([2]; female, 49 d): 0
Brain: macrophages, pigmented; minimal ([2]; female, 49 d): 0
Brain: mineralization focal; minimal ([2]; female, 49 d): 0
Brain: neovascularization; minimal ([2]; female, 49 d): 0
Brain: within normal limits ([2]; female, 49 d): 0
Spinal Cord, Cervical: degeneration, axonal/myelin; minimal ([2]; female, 49 d): 0
Spinal Cord, Cervical: fibroplasia; mild ([2]; female, 49 d): 0
Spinal Cord, Cervical: fibroplasia; minimal ([2]; female, 49 d): 0
Spinal Cord, Cervical: fibroplasia; moderate ([2]; female, 49 d): 0
Spinal Cord, Cervical: hemorrhage; minimal ([2]; female, 49 d): 0
Spinal Cord, Cervical: inflammation, granulomatous; minimal ([2]; female, 49 d): 0
Spinal Cord, Cervical: inflammation, granulomatous; moderate ([2]; female, 49 d): 0
Spinal Cord, Cervical: inflammation, subacute/chronic; mild ([2]; female, 49 d): 0
Spinal Cord, Cervical: macrophages, pigmented; minimal ([2]; female, 49 d): 0
Spinal Cord, Cervical: within normal limits ([2]; female, 49 d): 0
Spinal Cord, Lumbar: fibroplasia; minimal ([2]; female, 49 d): 0
Spinal Cord, Lumbar: hemorrhage; minimal ([2]; female, 49 d): 0
Spinal Cord, Lumbar: mineralization; minimal ([2]; female, 49 d): 0
Spinal Cord, Lumbar: within normal limits ([2]; female, 49 d): 0
Spinal Cord, Thoracic: fibroplasia; minimal ([2]; female, 49 d): 0
Spinal Cord, Thoracic: hemorrhage; minimal ([2]; female, 49 d): 0
Spinal Cord, Thoracic: inflammation, granulomatous; minimal ([2]; female, 49 d): 0
Spinal Cord, Thoracic: inflammation, subacute/chronic; minimal ([2]; female, 49 d): 0
Spinal Cord, Thoracic: macrophages, pigmented; minimal ([2]; female, 49 d): 0
Spinal Cord, Thoracic: within normal limits ([2]; female, 49 d): 0
Brain discoloration, red, # of animals ([2]; male, 28 d): 0
Brain focus/foci, red, # of animals ([2]; male, 28 d): 0
Brain nodule, # of animals ([2]; male, 28 d): 0
Brain: chromatolysis, central, neuronal; minimal ([2]; male, 28 d): 0
Brain: degeneration, axonal/myelin; mild ([2]; male, 28 d): 0
Brain: degeneration, axonal/myelin; minimal ([2]; male, 28 d): 0
Brain: degeneration; mild ([2]; male, 28 d): 0
Brain: degeneration; minimal ([2]; male, 28 d): 0
Brain: granulation tissue; mild ([2]; male, 28 d): 0
Brain: granulation tissue; minimal ([2]; male, 28 d): 0
Brain: hemorrhage; mild ([2]; male, 28 d): 0
Brain: hemorrhage; minimal ([2]; male, 28 d): 0
Brain: hemorrhage; moderate ([2]; male, 28 d): 0
Brain: infiltration, lymphoid, perivascular; minimal ([2]; male, 28 d): 0
Brain: inflammation, meningeal; minimal ([2]; male, 28 d): 0
Brain: inflammation, subacute/chronic; mild ([2]; male, 28 d): 0
Brain: inflammation, subacute/chronic; minimal ([2]; male, 28 d): 0
Brain: macrophages, pigmented; minimal ([2]; male, 28 d): 0
Brain: mineralization focal; minimal ([2]; male, 28 d): 0
Brain: neovascularization; minimal ([2]; male, 28 d): 0
Brain: within normal limits ([2]; male, 28 d): 0
Spinal Cord, Cervical: degeneration, axonal/myelin; minimal ([2]; male, 28 d): 0
Spinal Cord, Cervical: fibroplasia; minimal ([2]; male, 28 d): 0
Spinal Cord, Cervical: inflammation, granulomatous; moderate ([2]; male, 28 d): 0
Spinal Cord, Cervical: within normal limits ([2]; male, 28 d): 0
Spinal Cord, Lumbar: fibroplasia; minimal ([2]; male, 28 d): 0
Spinal Cord, Lumbar: hemorrhage; minimal ([2]; male, 28 d): 0
Spinal Cord, Lumbar: mineralization; minimal ([2]; male, 28 d): 0
Spinal Cord, Lumbar: within normal limits ([2]; male, 28 d): 0
Spinal Cord, Thoracic: fibroplasia; minimal ([2]; male, 28 d): 0
Spinal Cord, Thoracic: hemorrhage; minimal ([2]; male, 28 d): 0
Spinal Cord, Thoracic: inflammation, granulomatous; minimal ([2]; male, 28 d): 0
Spinal Cord, Thoracic: inflammation, subacute/chronic; minimal ([2]; male, 28 d): 0
Spinal Cord, Thoracic: macrophages, pigmented; minimal ([2]; male, 28 d): 0
Spinal Cord, Thoracic: within normal limits ([2]; male, 28 d): 0
Brain discoloration, red, # of animals ([2]; male, 49 d): 0
Brain focus/foci, red, # of animals ([2]; male, 49 d): 0
Brain nodule, # of animals ([2]; male, 49 d): 0
Brain: chromatolysis, central, neuronal; minimal ([2]; male, 49 d): 0
Brain: degeneration, axonal/myelin; mild ([2]; male, 49 d): 0
Brain: degeneration, axonal/myelin; minimal ([2]; male, 49 d): 0
Brain: degeneration; mild ([2]; male, 49 d): 0
Brain: degeneration; minimal ([2]; male, 49 d): 0
Brain: fibroplasia; minimal ([2]; male, 49 d): 0
Brain: granulation tissue; mild ([2]; male, 49 d): 0
Brain: granulation tissue; minimal ([2]; male, 49 d): 0
Brain: hemorrhage; mild ([2]; male, 49 d): 0
Brain: hemorrhage; minimal ([2]; male, 49 d): 0
Brain: hemorrhage; moderate ([2]; male, 49 d): 0
Brain: infiltration, lymphoid, perivascular; minimal ([2]; male, 49 d): 0
Brain: inflammation, granulomous; mild ([2]; male, 49 d): 0
Brain: inflammation, meningeal; minimal ([2]; male, 49 d): 0
Brain: inflammation, subacute/chronic; mild ([2]; male, 49 d): 0
Brain: macrophages, pigmented; mild ([2]; male, 49 d): 0
Brain: macrophages, pigmented; minimal ([2]; male, 49 d): 0
Brain: mineralization focal; minimal ([2]; male, 49 d): 0
Brain: neovascularization; minimal ([2]; male, 49 d): 0
Brain: within normal limits ([2]; male, 49 d): 0
Spinal Cord, Cervical: degeneration, axonal/myelin; minimal ([2]; male, 49 d): 0
Spinal Cord, Cervical: fibroplasia; minimal ([2]; male, 49 d): 0
Spinal Cord, Cervical: fibroplasia; moderate ([2]; male, 49 d): 0
Spinal Cord, Cervical: hemorrhage; minimal ([2]; male, 49 d): 0
Spinal Cord, Cervical: inflammation, granulomatous; minimal ([2]; male, 49 d): 0
Spinal Cord, Cervical: inflammation, granulomatous; moderate ([2]; male, 49 d): 0
Spinal Cord, Cervical: inflammation, subacute/chronic; mild ([2]; male, 49 d): 0
Spinal Cord, Cervical: macrophages, pigmented; minimal ([2]; male, 49 d): 0
Spinal Cord, Lumbar: fibroplasia; minimal ([2]; male, 49 d): 0
Spinal Cord, Lumbar: hemorrhage; minimal ([2]; male, 49 d): 0
Spinal Cord, Lumbar: mineralization; minimal ([2]; male, 49 d): 0
Spinal Cord, Lumbar: within normal limits ([2]; male, 49 d): 0
Spinal Cord, Thoracic: fibroplasia; minimal ([2]; male, 49 d): 0
Spinal Cord, Thoracic: hemorrhage; minimal ([2]; male, 49 d): 0
Spinal Cord, Thoracic: inflammation, granulomatous; minimal ([2]; male, 49 d): 0
Spinal Cord, Thoracic: inflammation, subacute/chronic; minimal ([2]; male, 49 d): 0
Spinal Cord, Thoracic: macrophages, pigmented; minimal ([2]; male, 49 d): 0
Spinal Cord, Thoracic: within normal limits ([2]; male, 49 d): 0
plasma nimodipine concentrations over time [3]: sustained release of nimodipine over time
LD50 ([4]; Intravenous): 33 mg/kg
LD50 ([4]; Oral): 3562 mg/kg
LD50 ([5]; Intravenous): 16 mg/kg
LD50 ([5]; Oral): 6599 mg/kg
LD50 ([6]; Rabbits, Female, Intravenous): 2.5 mg/kg
LD50 ([6]; female, rabbit, in vivo, po): 5000 mg/kg
LD50 ([7]; Dogs, Male and female, Intravenous): 4 mg/kg
LD50 ([7]; both, dog, in vivo, po): 1000 to 2000 mg/kg
